Results: the NIST ThermoML archive (doi:10.1016/j.jct.2014.05.014)

Test: cn = amount concentration of the nth substance listed, in mol/dm3
Settings: 101.3 kPa, Liquid; for electrical conductivity: Alternating current cell with electrodes; for viscosity: Falling or rolling sphere viscometry; for mass density: Vibrating tube method

CC(N)C(=O)[O-].[Na+] (stereo not drawn) [sodium DL-alaninate] + O
Settings | electrical conductivity [S/m] | mass density [kg/m3] | viscosity [mPa·s]
303.15 K, c1 = 0.478 | – | – | 0.98
303.15 K, c1 = 0.498 | 2.82 | 1021.4 | –
303.15 K, c1 = 0.985 | – | 1045.4 | –
303.15 K, c1 = 0.99 | 4.45 | – | –
303.15 K, c1 = 0.994 | – | – | 1.232
303.15 K, c1 = 1.485 | 5.36 | – | –
303.15 K, c1 = 1.495 | – | 1069 | 1.579
303.15 K, c1 = 1.975 | – | 1090.8 | 2.011
303.15 K, c1 = 1.983 | 5.78 | – | –
303.15 K, c1 = 2.467 | – | 1113.1 | –
303.15 K, c1 = 2.476 | 5.77 | – | –
303.15 K, c1 = 2.496 | – | – | 2.683
303.15 K, c1 = 3.032 | – | – | 3.708
303.15 K, c1 = 3.048 | 5.43 | – | –
303.15 K, c1 = 3.063 | – | 1139.4 | –
308.15 K, c1 = 0.478 | – | – | 0.877
308.15 K, c1 = 0.498 | 3.11 | 1019.6 | –
308.15 K, c1 = 0.985 | – | 1043.4 | –
308.15 K, c1 = 0.99 | 4.92 | – | –
308.15 K, c1 = 0.994 | – | – | 1.099
308.15 K, c1 = 1.485 | 5.94 | – | –
308.15 K, c1 = 1.495 | – | 1066.9 | 1.423
308.15 K, c1 = 1.975 | – | 1088.5 | 1.771
308.15 K, c1 = 1.983 | 6.45 | – | –
308.15 K, c1 = 2.467 | – | 1110.7 | –
308.15 K, c1 = 2.476 | 6.48 | – | –
308.15 K, c1 = 2.496 | – | – | 2.341
308.15 K, c1 = 3.032 | – | – | 3.187
308.15 K, c1 = 3.048 | 6.17 | – | –
308.15 K, c1 = 3.063 | – | 1136.8 | –
313.15 K, c1 = 0.478 | – | – | 0.796
313.15 K, c1 = 0.498 | 3.42 | 1017.7 | –
313.15 K, c1 = 0.985 | – | 1041.4 | –
313.15 K, c1 = 0.99 | 5.41 | – | –
313.15 K, c1 = 0.994 | – | – | 0.991
313.15 K, c1 = 1.485 | 6.54 | – | –
313.15 K, c1 = 1.495 | – | 1064.7 | 1.243
313.15 K, c1 = 1.975 | – | 1086.1 | 1.574
313.15 K, c1 = 1.983 | 7.13 | – | –
313.15 K, c1 = 2.467 | – | 1108.2 | –
313.15 K, c1 = 2.476 | 7.22 | – | –
313.15 K, c1 = 2.496 | – | – | 2.06
313.15 K, c1 = 3.032 | – | – | 2.765
313.15 K, c1 = 3.048 | 6.94 | – | –
313.15 K, c1 = 3.063 | – | 1134 | –
318.15 K, c1 = 0.478 | – | – | 0.721
318.15 K, c1 = 0.498 | 3.72 | 1015.7 | –
318.15 K, c1 = 0.985 | – | 1039.3 | –
318.15 K, c1 = 0.99 | 5.89 | – | –
318.15 K, c1 = 0.994 | – | – | 0.895
318.15 K, c1 = 1.485 | 7.14 | – | –
318.15 K, c1 = 1.495 | – | 1062.3 | 1.122
318.15 K, c1 = 1.975 | – | 1083.7 | 1.405
318.15 K, c1 = 1.983 | 7.82 | – | –
318.15 K, c1 = 2.467 | – | 1105.5 | –
318.15 K, c1 = 2.476 | 7.98 | – | –
318.15 K, c1 = 2.496 | – | – | 1.821
318.15 K, c1 = 3.032 | – | – | 2.426
318.15 K, c1 = 3.048 | 7.72 | – | –
318.15 K, c1 = 3.063 | – | 1131.3 | –
323.15 K, c1 = 0.478 | – | – | 0.661
323.15 K, c1 = 0.498 | 4.04 | 1013.4 | –
323.15 K, c1 = 0.985 | – | 1036.9 | –
323.15 K, c1 = 0.99 | 6.38 | – | –
323.15 K, c1 = 0.994 | – | – | 0.817
323.15 K, c1 = 1.485 | 7.76 | – | –
323.15 K, c1 = 1.495 | – | 1059.8 | 1.014
323.15 K, c1 = 1.975 | – | 1081.1 | 1.268
323.15 K, c1 = 1.983 | 8.52 | – | –
323.15 K, c1 = 2.467 | – | 1102.8 | –
323.15 K, c1 = 2.476 | 8.73 | – | –
323.15 K, c1 = 2.496 | – | – | 1.629
323.15 K, c1 = 3.032 | – | – | 2.146
323.15 K, c1 = 3.048 | 8.52 | – | –
323.15 K, c1 = 3.063 | – | 1128.4 | –
328.15 K, c1 = 0.478 | – | – | 0.606
328.15 K, c1 = 0.498 | 4.37 | 1011.1 | –
328.15 K, c1 = 0.985 | – | 1034.5 | –
328.15 K, c1 = 0.99 | 6.87 | – | –
328.15 K, c1 = 0.994 | – | – | 0.75
328.15 K, c1 = 1.485 | 8.38 | – | –
328.15 K, c1 = 1.495 | – | 1057.3 | 0.924
328.15 K, c1 = 1.975 | – | 1078.4 | 1.148
328.15 K, c1 = 1.983 | 9.22 | – | –
328.15 K, c1 = 2.467 | – | 1100.2 | –
328.15 K, c1 = 2.476 | 9.5 | – | –
328.15 K, c1 = 2.496 | – | – | 1.467
328.15 K, c1 = 3.032 | – | – | 1.912
328.15 K, c1 = 3.048 | 9.33 | – | –
328.15 K, c1 = 3.063 | – | 1125.4 | –
333.15 K, c1 = 0.478 | – | – | 0.559
333.15 K, c1 = 0.498 | 4.68 | 1008.7 | –
333.15 K, c1 = 0.985 | – | 1032 | –
333.15 K, c1 = 0.99 | 7.37 | – | –
333.15 K, c1 = 0.994 | – | – | 0.687
333.15 K, c1 = 1.485 | 8.99 | – | –
333.15 K, c1 = 1.495 | – | 1054.6 | 0.847
333.15 K, c1 = 1.975 | – | 1075.7 | 1.047
333.15 K, c1 = 1.983 | 9.93 | – | –
333.15 K, c1 = 2.467 | – | 1097.2 | –
333.15 K, c1 = 2.476 | 10.3 | – | –
333.15 K, c1 = 2.496 | – | – | 1.326
333.15 K, c1 = 3.032 | – | – | 1.718
333.15 K, c1 = 3.048 | 10.1 | – | –
333.15 K, c1 = 3.063 | – | 1122.4 | –
338.15 K, c1 = 0.478 | – | – | 0.52
338.15 K, c1 = 0.498 | 5.01 | 1006 | –
338.15 K, c1 = 0.985 | – | 1029.3 | –
338.15 K, c1 = 0.99 | 7.87 | – | –
338.15 K, c1 = 0.994 | – | – | 0.638
338.15 K, c1 = 1.485 | 9.62 | – | –
338.15 K, c1 = 1.495 | – | 1051.8 | 0.778
338.15 K, c1 = 1.975 | – | 1072.9 | 0.96
338.15 K, c1 = 1.983 | 10.7 | – | –
338.15 K, c1 = 2.467 | – | 1094.3 | –
338.15 K, c1 = 2.476 | 11 | – | –
338.15 K, c1 = 2.496 | – | – | 1.206
338.15 K, c1 = 3.032 | – | – | 1.546
338.15 K, c1 = 3.048 | 11 | – | –
338.15 K, c1 = 3.063 | – | 1119.4 | –
343.15 K, c1 = 0.478 | – | – | 0.484
343.15 K, c1 = 0.498 | 5.34 | 1003.1 | –
343.15 K, c1 = 0.985 | – | 1026.4 | –
343.15 K, c1 = 0.99 | 8.38 | – | –
343.15 K, c1 = 0.994 | – | – | 0.591
343.15 K, c1 = 1.485 | 10.2 | – | –
343.15 K, c1 = 1.495 | – | 1049 | 0.729
343.15 K, c1 = 1.975 | – | 1069.9 | 0.881
343.15 K, c1 = 1.983 | 11.3 | – | –
343.15 K, c1 = 2.467 | – | 1091.2 | –
343.15 K, c1 = 2.476 | 11.8 | – | –
343.15 K, c1 = 2.496 | – | – | 1.102
343.15 K, c1 = 3.032 | – | – | 1.408
343.15 K, c1 = 3.048 | 11.8 | – | –
343.15 K, c1 = 3.063 | – | 1116.2 | –
